From BindingDB's records for doi:10.7270/Q2ZG6QP2 (Nmmlsc, 2010)

Molecular target: T1, Integrin alpha-4 (Homo sapiens, UniProt P13612)
T1 sequence (P13612 whole entry): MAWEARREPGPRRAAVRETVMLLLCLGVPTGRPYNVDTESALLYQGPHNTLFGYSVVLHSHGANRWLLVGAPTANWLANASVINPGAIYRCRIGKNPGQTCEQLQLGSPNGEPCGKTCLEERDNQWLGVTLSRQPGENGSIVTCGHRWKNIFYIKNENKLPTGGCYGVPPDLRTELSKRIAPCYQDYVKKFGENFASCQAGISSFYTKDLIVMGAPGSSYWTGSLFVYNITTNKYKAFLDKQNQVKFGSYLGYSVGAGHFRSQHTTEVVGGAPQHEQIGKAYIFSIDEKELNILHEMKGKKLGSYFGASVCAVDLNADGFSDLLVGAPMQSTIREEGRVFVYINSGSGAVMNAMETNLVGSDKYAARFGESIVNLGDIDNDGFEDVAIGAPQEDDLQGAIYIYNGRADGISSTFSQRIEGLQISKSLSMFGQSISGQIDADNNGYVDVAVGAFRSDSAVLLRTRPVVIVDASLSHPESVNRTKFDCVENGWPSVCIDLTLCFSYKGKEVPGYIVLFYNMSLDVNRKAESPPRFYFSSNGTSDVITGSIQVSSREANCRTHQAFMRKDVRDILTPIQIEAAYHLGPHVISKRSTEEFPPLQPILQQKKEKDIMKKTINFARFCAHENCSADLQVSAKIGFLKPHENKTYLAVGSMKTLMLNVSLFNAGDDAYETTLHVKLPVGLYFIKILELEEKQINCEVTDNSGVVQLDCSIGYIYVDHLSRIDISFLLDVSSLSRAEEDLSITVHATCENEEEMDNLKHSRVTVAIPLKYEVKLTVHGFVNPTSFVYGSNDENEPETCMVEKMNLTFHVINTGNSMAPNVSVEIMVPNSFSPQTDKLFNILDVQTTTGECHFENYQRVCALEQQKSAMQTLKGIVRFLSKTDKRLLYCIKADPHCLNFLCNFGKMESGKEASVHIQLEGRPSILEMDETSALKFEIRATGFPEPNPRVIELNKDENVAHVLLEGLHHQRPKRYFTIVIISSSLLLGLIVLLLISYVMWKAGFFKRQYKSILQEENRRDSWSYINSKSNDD
Assay: concentration series for VLA-4 modulators – cell-based, U937, HUTS-21 LIBS antibody, flow cytometry, dose response (AID 449766)

[1] = inactive by the depositor's call

CCOC(=O)C(=Cc1ccc(OC(F)F)cc1)C1=Nn2c(nnc2-c2ccc(Cl)cc2)SC1 [ethyl (Z)-2-[3-(4-chlorophenyl)-7H-[1,2,4]triazolo[3,4-b][1,3,4]thiadiazin-6-yl]-3-[4-(difluoromethoxy)phenyl]prop-2-enoate]
EC50: 7.79 µM

COC(=O)[C@@H]1[C@@H](C(=O)OC)C2(c3ccccc3-c3ccccc32)N(c2ccc(Cl)cc2)N1C#N [(3'S,4'R)-1'-(4-chlorophenyl)-2'-cyanospiro[fluorene-9,5'-pyrazolidine]-3',4'-dicarboxylic acid dimethyl ester]
EC50: > 30 µM

COc1cccc(-c2sc3ccccc3c2-c2ccc(OCCN3CCCC3)cc2)c1
EC50: > 30 µM

CCOC(=O)COc1ccccc1/C=C\[N+](=O)[O-] [SMR000204386]
EC50: 2.45 µM

COc1cccc(-c2sc3ccccc3c2-c2ccc(OCCN(C)C)cc2)c1
EC50: 12.4 µM

COC(=O)C1CN(C#N)N(c2ccc(Cl)cc2)C12c1ccccc1-c1ccccc12 (configuration not stated) [2'-(4-chlorophenyl)-1'-cyano-4'-spiro[fluorene-9,3'-pyrazolidine]carboxylic acid methyl ester]
EC50: 6.71 µM

C[S+]([O-])c1nc(-c2ccc(Br)cc2)cc(-c2ccccc2)c1C#N (configuration not stated) [6-(4-bromophenyl)-2-(methylsulfinyl)-4-phenylnicotinonitrile]
EC50: 2.67 µM

COc1ccc(C(=O)c2cc([N+](=O)[O-])ccc2N2CCOCC2)cc1 [MLS000663963]
EC50: > 30 µM

FC(F)(F)c1nnc(-c2ccccc2)nc1Sc1ccc(Cl)cc1 [SMR000180067]
EC50 [1]: 0.73 µM

c1ccc(-c2sc3ccccc3c2-c2ccc(OCCN3CCCC3)cc2)cc1 [1-[2-[4-(2-phenyl-1-benzothiophen-3-yl)phenoxy]ethyl]pyrrolidine]
EC50: 14.8 µM

CC(NC(=O)/C(C#N)=C/c1ccc(Cl)c([N+](=O)[O-])c1)c1ccccc1 (configuration not stated) [(E)-3-(4-chloro-3-nitrophenyl)-2-cyano-N-(1-phenylethyl)prop-2-enamide]
EC50: 0.95 µM

CCOCCCNC(=O)/C(C#N)=C/c1ccc(Cl)c([N+](=O)[O-])c1 [(E)-3-(4-chloro-3-nitrophenyl)-2-cyano-N-(3-ethoxypropyl)-2-propenamide]
EC50: 3.59 µM

O=C(COc1ccc(C=NNC(=O)c2cc3ccccc3o2)cc1Cl)Nc1ccccc1 [SMR000160815]
EC50: > 30 µM

COc1cccc(-c2sc3ccccc3c2-c2ccc(OCCN3CCCCC3)cc2)c1 [SMR001397793]
EC50 [1]: 5.46 µM

CC1(C)C[C@H]2C=C(C=O)[C@]3(C=O)C[C@]3(C)[C@H]2C1
EC50 [1]: 3.15 µM

C=C1C(O)[C@@H]2O[C@]3(CC[C@H](/C=C/C(C)[C@@H]4CC(C)=CC5(O[C@H](C[C@@](C)(O)CO)CCC5O)O4)O3)CC[C@H]2O[C@@H]1C(O)CC(C)[C@H]1OC2(CCCCO2)CCC1C (some centres not stated) [MLS002320507]
EC50: 0.61 µM

COC(=O)C[C@]1(C(=O)OC)CN(C#N)N(c2ccc(Cl)cc2)C12c1ccccc1-c1ccccc12 [methyl 1-(4-chlorophenyl)-2-cyano-4-(2-methoxy-2-oxoethyl)spiro[pyrazolidine-5,9'-(9'H)-fluorene]-4-carboxylate]
EC50: > 30 µM

CN(C)CCOc1ccc(-c2c(-c3ccccc3)sc3ccccc23)cc1 [SMR001397792]
EC50: > 30 µM

Cc1ccc(NC(=O)c2cc(N3C(=O)C=CC3=O)ccc2N2CCOCC2)cc1Cl [N-(3-chloro-4-methylphenyl)-5-(2,5-dioxo-2,5-dihydro-1H-pyrrol-1-yl)-2-(4-morpholinyl)benzamide]
EC50: 5.5 µM

C=C(C=O)C[C@@H]1C[C@H](O)C2OC3C[C@]4(C)OC5/C=C\CC6OC7C(CC=CCC6OC5CCCC4OC3CC2O1)OC1CC2OC3CC(=O)OC3C[C@@H](C)C[C@@]2(C)OC1C[C@@H]7C (some centres not stated) [MLS002320514]
EC50: 2.15 µM

COc1cccc(-c2sc3ccc(OC)cc3c2-c2ccc(OCCN(C)C)cc2)c1 [SMR001397780]
EC50 [1]: 0.22 µM

COc1ccc(-c2sc3ccccc3c2-c2ccc(OCCN(C)C)cc2)cc1 [MLS002473632]
EC50: > 30 µM
